Test results taken from patent publication US9149536B2, “Conjugated antimicrobial agents” (priority 2009, dated 2015).
Converted amounts (≈) assume the structure as drawn.

Assays:
B. subtilis ATCC 6633 = assay: MIC, double-microdilution, B. subtilis ATCC 6633; assay type: cell-based; details: for MIC Bacillus subtilis: Table 6; for MIC B. subtilis ATCC 6633: Table 4
E. coli XL1 blue = assay: microbe, parasite or virus in culture; assay type: cell-based; details: Table 6
Method: (§1) For this purpose, exemplary conjugates, according to some embodiments of the present invention, were tested against five isogenic E. coli strains. E. coli (pSF815) and E. coli (pET9d) are laboratory resistant strains derived by transformation of E. coli XL1 blue (background strain) with the pSF815 and pET9d plasmids, respectively. […] The last two isogenic strains used were E. coli BL21 (background strain) and E. coli (pETSACG1). […] These three enzymes are among the most prevalent modes of resistance found in aminoglycosides resistance strains.
(§2) The MIC ratios were calculated by dividing the MIC value against resistant strain to that against the respective background strain.

E. coli XL1 blue/pET9d = assay: microbe, parasite or virus in culture; assay type: cell-based; details: Table 6
Method: as §1, §2

E. coli AG100A = assay: MIC, double-microdilution, E. coli AG100A; assay type: cell-based, Escherichia coli
E. coli R477-100 = assay: MIC, double-microdilution, E. coli R477-100; assay type: cell-based, Escherichia coli
E. coli AG100B = assay: MIC, double-microdilution, E. coli AG100B; assay type: cell-based, Escherichia coli
Source text: AG100B and AG100A are two kanamycin resistant Escherichia coli strains expressing APH(3′)-I aminoglycoside resistance enzyme.

E. coli ATCC 25922 = assay: MIC, double-microdilution, E. coli ATCC 25922; assay type: cell-based, Escherichia coli; details: for MIC E. coli 25922: Table 6; for MIC E. coli ATCC 25922: Table 4
MRSA ATCC 43300 = assay: microbe, parasite or virus in culture; assay type: cell-based, S. aureus; details: Table 4
[1] = Table 4, kanamycin resistant, APH(3′)-I

Row | Molecule | MIC B. subtilis ATCC 6633 (B. subtilis ATCC 6633) | MIC E. coli AG100A (E. coli AG100A; [1]) | MIC MRSA ATCC 43300 (MRSA ATCC 43300) | MIC E. coli R477-100 (E. coli R477-100; Table 4) | MIC E. coli AG100B (E. coli AG100B; [1]) | MIC E. coli ATCC 25922 (E. coli ATCC 25922) | further results
1 | NCC1OC(OC2C(N)CC(NCc3cn(CC(O)CN4CCN(c5cc6c(cc5F)c(=O)c(C(=O)O)cn6C5CC5)CC4)nn3)C(OC3OC(CO)C(O)C(N)C3O)C2O)C(O)C(O)C1O (stereo not shown) [Compound 11f, 1-(4-(1-N-kanamycinmethyl)-1H-1,2,3-triazol-1-yl)-3-(ciprofloxacin)propan-2-ol] | – | – | – | – | – | – | MIC Bacillus subtilis (B. subtilis ATCC 6633): 1.5 µg/mL (≈ 1.57 µM); MIC E. coli XL1 blue (E. coli XL1 blue): 3 µg/mL (≈ 3.15 µM); MIC E. coli XL1 blue/pET9d-aph(3′)-Ia (E. coli XL1 blue/pET9d): 3 μg/ml; MIC E. coli AG100A (E. coli AG100A; Table 6): 0.75 µg/mL (≈ 0.787 µM); MIC E. coli R477-100 (E. coli R477-100; Table 6): 3 µg/mL (≈ 3.15 µM); MIC E. coli AG100B (E. coli AG100B; Table 6): 6 µg/mL (≈ 6.3 µM); MIC E. coli 25922 (E. coli ATCC 25922): 1.5 µg/mL (≈ 1.57 µM)
2 | NCC1OC(OC2C(C(=O)Nc3ccc(-c4cn(CCN5CCN(c6cc7c(cc6F)c(=O)c(C(=O)O)cn7C6CC6)CC5)nn4)cc3)OC(OC3C(O)C(N)CC(N)C3OC3OC(CN)C(O)C(O)C3N)C2O)C(N)C(O)C1O (stereo not shown) [Compound 1a, N-(4-(1-(2-(ciprofloxacin)ethyl)-1H-1,2,3-triazol-4-yl)-5″-phenyl)neomycin] | 6 µg/mL (≈ 5.32 µM) | 0.75 µg/mL (≈ 0.665 µM) | 48 µg/mL (≈ 42.5 µM) | 12 µg/mL (≈ 10.6 µM) | 24 µg/mL (≈ 21.3 µM) | 6 µg/mL (≈ 5.32 µM) | –
3 | NCC1OC(OC2C(C(=O)Nc3ccc(-c4cn(CCCCCCN5CCN(c6cc7c(cc6F)c(=O)c(C(=O)O)cn7C6CC6)CC5)nn4)cc3)OC(OC3C(O)C(N)CC(N)C3OC3OC(CN)C(O)C(O)C3N)C2O)C(N)C(O)C1O (stereo not shown) [Compound 1e, N-(4-(1-(2-(ciprofloxacin)hexyl)-1H-1,2,3-triazol-4-yl)-5″-phenyl)neomycin carboxamide] | 12 µg/mL (≈ 10.1 µM) | 1.5 µg/mL (≈ 1.27 µM) | 48 µg/mL (≈ 40.5 µM) | 6 µg/mL (≈ 5.07 µM) | 12 µg/mL (≈ 10.1 µM) | 6 µg/mL (≈ 5.07 µM) | –
4 | NCC1OC(OC2C(C(=O)Nc3ccc(-c4cn(CCOCCN5CCN(c6cc7c(cc6F)c(=O)c(C(=O)O)cn7C6CC6)CC5)nn4)cc3)OC(OC3C(O)C(N)CC(N)C3OC3OC(CN)C(O)C(O)C3N)C2O)C(N)C(O)C1O (stereo not shown) [Compound 1g, N-(4-(1-(2-(2-(ciprofloxacin)ethoxy)ethyl)-1H-1,2,3-triazol-4-yl)-5″-phenyl)neomycin carboxamide] | 12 µg/mL (≈ 10.2 µM) | 1.5 µg/mL (≈ 1.28 µM) | 24 µg/mL (≈ 20.5 µM) | 24 µg/mL (≈ 20.5 µM) | 12 µg/mL (≈ 10.2 µM) | 12 µg/mL (≈ 10.2 µM) | –
5 | NCC1O[C@@H](O[C@H]2C(N)C[C@H](NCc3cn(CCN4CCN(c5cc6c(cc5F)c(=O)c(C(=O)O)cn6C5CC5)CC4)nn3)C(OC3O[C@@H](CO)C(O)C(N)[C@@H]3O)C2O)C(O)C(O)[C@H]1O (stereo partly shown) [Compound 11a, 4-(1-N-kanamycinmethyl)-1-(2-(ciprofloxacin)ethyl)-1H-1,2,3-triazole] | – | – | – | – | – | – | MIC (B. subtilis ATCC 6633; Bacillus subtilis, ATCC6633, read-out: MIC Bacillus subtilis): 1.5 µg/mL (≈ 1.63 µM); MIC (E. coli XL1 blue; Escherichia coli, XL1BLUE, read-out: MIC E. coli XL1 blue): 6 µg/mL (≈ 6.5 µM); MIC (E. coli XL1 blue/pET9d; Escherichia coli, XL1BLUE/PET9D, read-out: MIC E. coli XL1 blue/pET9d-aph(3′)-Ia): 6 µg/mL (≈ 6.5 µM); MIC (E. coli AG100A; Escherichia coli, AG100A, read-out: MIC E. coli AG100A, Table 6): 0.75 µg/mL (≈ 0.813 µM); MIC (E. coli R477-100; Escherichia coli, R477100, read-out: MIC E. Coli R477-100): 6 µg/mL (≈ 6.5 µM); MIC (E. coli AG100B; Escherichia coli, AG100B, read-out: MIC E. coli AG100B, Table 6): 12 µg/mL (≈ 13 µM); MIC (E. coli ATCC 25922; Escherichia coli, ATCC25922, read-out: MIC E. coli 25922): 3 µg/mL (≈ 3.25 µM)
6 | NCC1OC(OC2C(C(=O)NCc3cn(CCCCCN4CCN(c5cc6c(cc5F)c(=O)c(C(=O)O)cn6C5CC5)CC4)nn3)OC(OC3C(O)C(N)CC(N)C3OC3OC(CN)C(O)C(O)C3N)C2O)C(N)C(O)C1O (stereo not shown) [Compound 1l, N-((1-(4-(ciprofloxacin)pentyl)-1H-1,2,3-triazol-4-yl)-5″-methyl)neomycin carboxamide] | 12 µg/mL (≈ 10.8 µM) | 1.5 µg/mL (≈ 1.35 µM) | 48 µg/mL (≈ 43.3 µM) | 24 µg/mL (≈ 21.7 µM) | 24 µg/mL (≈ 21.7 µM) | 6 µg/mL (≈ 5.41 µM) | –
7 | NCC1OC(OC2C(C(=O)Nc3ccc(-c4cn(CCCN5CCN(c6cc7c(cc6F)c(=O)c(C(=O)O)cn7C6CC6)CC5)nn4)cc3)OC(OC3C(O)C(N)CC(N)C3OC3OC(CN)C(O)C(O)C3N)C2O)C(N)C(O)C1O (stereo not shown) [Compound 1b, N-(4-(1-(2-(ciprofloxacin)propyl)-1H-1,2,3-triazol-4-yl)-5″-phenyl)neomycin carboxamide] | 6 µg/mL (≈ 5.25 µM) | 1.5 µg/mL (≈ 1.31 µM) | 48 µg/mL (≈ 42 µM) | 6 µg/mL (≈ 5.25 µM) | 12 µg/mL (≈ 10.5 µM) | 3 µg/mL (≈ 2.63 µM) | –
8 | NCC1OC(OC2C(C(=O)NCc3cn(CCCN4CCN(c5cc6c(cc5F)c(=O)c(C(=O)O)cn6C5CC5)CC4)nn3)OC(OC3C(O)C(N)CC(N)C3OC3OC(CN)C(O)C(O)C3N)C2O)C(N)C(O)C1O (stereo not shown) [Compound 1k, N-((1-(4-(ciprofloxacin)propyl)-1H-1,2,3-triazol-4-yl)-5″-methyl)neomycin carboxamide] | 6 µg/mL (≈ 5.55 µM) | 1.5 µg/mL (≈ 1.39 µM) | 48 µg/mL (≈ 44.4 µM) | 12 µg/mL (≈ 11.1 µM) | 12 µg/mL (≈ 11.1 µM) | 6 µg/mL (≈ 5.55 µM) | –
9 | N-(4-(1-(4-((ciprofloxacin)methyl)benzyl)-1H-1,2,3-triazol-4-yl)-5″-phenyl)neomycin carboxamide [Compound 1h] | 6 µg/mL | 1.5 µg/mL | 12 µg/mL | 6 µg/mL | 12 µg/mL | 12 µg/mL | –
10 | NC[C@H]1O[C@H](O[C@H]2[C@H](O)[C@@H](O[C@H]3O[C@H](CO)[C@@H](O)[C@H](N)[C@H]3O)[C@H](N)C[C@@H]2N)[C@H](O)[C@@H](O)[C@@H]1O [KanA, kanamycin A, reference compound] | – | – | – | – | – | – | MIC Bacillus subtilis (B. subtilis ATCC 6633): 1.5 µg/mL (≈ 3.1 µM); MIC E. coli XL1 blue (E. coli XL1 blue): 3 µg/mL (≈ 6.19 µM); MIC E. coli XL1 blue/pET9d-aph(3′)-Ia (E. coli XL1 blue/pET9d): >384 μg/ml; MIC E. coli AG100A (E. coli AG100A; Table 6): 384 µg/mL (≈ 793 µM); MIC E. coli R477-100 (E. coli R477-100; Table 6): 24 µg/mL (≈ 49.5 µM); MIC E. coli AG100B (E. coli AG100B; Table 6): >384 µg/mL; MIC E. coli 25922 (E. coli ATCC 25922): 12 µg/mL (≈ 24.8 µM)
11 | NCC1OC(OC2C(C(=O)NCc3cn(CCOCCN4CCN(c5cc6c(cc5F)c(=O)c(C(=O)O)cn6C5CC5)CC4)nn3)OC(OC3C(O)C(N)CC(N)C3OC3OC(CN)C(O)C(O)C3N)C2O)C(N)C(O)C1O (stereo not shown) [Compound 1n, N-((1-(2-(2-(ciprofloxacin)ethoxy)ethyl)-1H-1,2,3-triazol-4-yl)-5″-methyl)neomycin carboxamide] | 12 µg/mL (≈ 10.8 µM) | 1.5 µg/mL (≈ 1.35 µM) | 24 µg/mL (≈ 21.6 µM) | 12 µg/mL (≈ 10.8 µM) | 12 µg/mL (≈ 10.8 µM) | 6 µg/mL (≈ 5.4 µM) | –
12 | NCC1OC(OC2C(C(=O)Nc3ccc(-c4cn(CCCCN5CCN(c6cc7c(cc6F)c(=O)c(C(=O)O)cn7C6CC6)CC5)nn4)cc3)OC(OC3C(O)C(N)CC(N)C3OC3OC(CN)C(O)C(O)C3N)C2O)C(N)C(O)C1O (stereo not shown) [Compound 1c, N-(4-(1-(2-(ciprofloxacin)butyl)-1H-1,2,3-triazol-4-yl)-5″-phenyl)neomycin carboxamide] | 6 µg/mL (≈ 5.19 µM) | 1.5 µg/mL (≈ 1.3 µM) | 24 µg/mL (≈ 20.8 µM) | 12 µg/mL (≈ 10.4 µM) | 24 µg/mL (≈ 20.8 µM) | 6 µg/mL (≈ 5.19 µM) | –
13 | NCC1OC(OC2C(C(=O)NCc3cn(CCN4CCN(c5cc6c(cc5F)c(=O)c(C(=O)O)cn6C5CC5)CC4)nn3)OC(OC3C(O)C(N)CC(N)C3OC3OC(CN)C(O)C(O)C3N)C2O)C(N)C(O)C1O (stereo not shown) [Compound 1j, N-((1-(4-(ciprofloxacin)ethyl)-1H-1,2,3-triazol-4-yl)-5″-methyl)neomycin carboxamide] | 3 µg/mL (≈ 2.81 µM) | 1.5 µg/mL (≈ 1.41 µM) | 24 µg/mL (≈ 22.5 µM) | 12 µg/mL (≈ 11.3 µM) | 12 µg/mL (≈ 11.3 µM) | 6 µg/mL (≈ 5.63 µM) | –
14 | NCC1OC(OC2C(N)CC(NCc3cn(Cc4ccc(CN5CCN(c6cc7c(cc6F)c(=O)c(C(=O)O)cn7C6CC6)CC5)cc4)nn3)C(OC3OC(CO)C(O)C(N)C3O)C2O)C(O)C(O)C1O (stereo not shown) [Compound 11i, 4-(1-N-kanamycinmethyl)-1-(4-((ciprofloxacin)methyl)benzyl)-1H-1,2,3-triazole] | – | – | – | – | – | – | MIC Bacillus subtilis (B. subtilis ATCC 6633): 3 µg/mL (≈ 3 µM); MIC E. coli XL1 blue (E. coli XL1 blue): 3 µg/mL (≈ 3 µM); MIC E. coli XL1 blue/pET9d-aph(3′)-Ia (E. coli XL1 blue/pET9d): 3 μg/ml; MIC E. coli AG100A (E. coli AG100A; Table 6): 0.75 µg/mL (≈ 0.751 µM); MIC E. coli R477-100 (E. coli R477-100; Table 6): 6 µg/mL (≈ 6.01 µM); MIC E. coli AG100B (E. coli AG100B; Table 6): 12 µg/mL (≈ 12 µM); MIC E. coli 25922 (E. coli ATCC 25922): 6 µg/mL (≈ 6.01 µM)
15 | NCC1OC(OC2C(C(=O)Nc3ccc(-c4cn(CCCCCN5CCN(c6cc7c(cc6F)c(=O)c(C(=O)O)cn7C6CC6)CC5)nn4)cc3)OC(OC3C(O)C(N)CC(N)C3OC3OC(CN)C(O)C(O)C3N)C2O)C(N)C(O)C1O (stereo not shown) [Compound 1d, N-(4-(1-(2-(ciprofloxacin)pentyl)-1H-1,2,3-triazol-4-yl)-5″-phenyl)neomycin carboxamide] | 12 µg/mL (≈ 10.3 µM) | 1.5 µg/mL (≈ 1.28 µM) | 48 µg/mL (≈ 41 µM) | 12 µg/mL (≈ 10.3 µM) | 24 µg/mL (≈ 20.5 µM) | 6 µg/mL (≈ 5.13 µM) | –
